From US4732970A, “Antitumor amino acid and peptide derivatives of 1,4-bis(aminoalkyl and hydroxy-aminoalkyl)amino)-5,8-dihydroxyanthraquinones” (priority 1986, dated 1988)

Tested on: lymphocytic leukemia P388
Assay: Lymphocytic Leukemia P388 Test
Type: in vivo, BDF1 mice
Details: for Median Survival: BDF1 mice; for T/C × 100 (%): ratio of survival time treated/control
How it was run: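 BDF1 mice (5–6 per group) were inoculated i.p. with 10^6 P388 cells, then dosed i.p. on days 1, 5 and 9 at various doses. Survival was followed for 60 days, and median survival time and the treated/control (T/C) survival ratio were calculated.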

[1] = dose 0.75 mg/kg intraperitoneally on days 1, 5 and 9
[2] = dose 1.5 mg/kg intraperitoneally on days 1, 5 and 9
[3] = dose 3 mg/kg intraperitoneally on days 1, 5 and 9

In the case of `CC(C)C[C@H](NC(=O)[C@H](C)NC(=O)[C@@H](N)CC(=O)O)C(=O)NCCNc1ccc(NCCNC(=O)[C@H](CC(C)C)NC(=O)[C@H](C)NC(=O)[C@@H](N)CC(=O)O)c2c1C(=O)c1c(O)ccc(O)c1C2=O.O=C(O)C(F)(F)F.O=C(O)C(F)(F)F` [Example 84, N,N'-[(9,10-Dihydro-5,8-dihydroxy-9,10-dioxo-1,4-anthracenediyl)bis(imino-2,1-ethanediyl)]bis[L-α-aspartyl-L-alanyl-L-leucinamide]bis(trifluoroacetate)], the “Median Survival” value [1] is reported as 24.0 days, the “T/C × 100 (%)” value [1] is reported as 240% and the “Median Survival” value [2] is reported as 21.5 days. For the same molecule, the “T/C × 100 (%)” value [2] was 215%, the “Median Survival” value [3] was 28.0 days and the “T/C × 100 (%)” value [3] was 280%.

For `Br.Br.N=C(N)NCCC[C@H](N)C(=O)NCCNc1ccc(NCCNC(=O)[C@@H](N)CCCNC(=N)N)c2c1C(=O)c1c(O)ccc(O)c1C2=O` [Example 86, N,N'-[(9,10-Dihydro-5,8-dihydroxy-9,10-dioxo-1,4-anthracenediyl)bis(imino-2,1-ethanediyl)]-L-arginine, dihydrobromide], the “Median Survival” value [1] was 22.0 days, the “T/C × 100 (%)” value [1] was 200% and the “Median Survival” value [2] was 27.0 days. The “T/C × 100 (%)” value [2] was 245%, the “Median Survival” value [3] was 34.5 days and the “T/C × 100 (%)” value [3] was 314%.

For `Br.Br.C[C@H](NCCNc1ccc(NCCN[C@@H](C)C(=O)N[C@@H](CCCNC(=N)N)C(=O)OC(C)(C)C)c2c1C(=O)c1c(O)ccc(O)c1C2=O)C(=O)N[C@@H](CCCNC(=N)N)C(=O)OC(C)(C)C` [Example 87, N,N'-[(9,10-Dihydro-5,8-dihydroxy-9,10-dioxo-1,4-anthracenediyl)bis(imino-2,-ethanediyl)]bis[L-alanyl-L-arginine]bis(1,1-dimethylethyl)ester, dihydrobromide], the “Median Survival” value [1] was 17.0 days, the “T/C × 100 (%)” value [1] was 170% and the “Median Survival” value [2] was 19.0 days. The “T/C × 100 (%)” value [2] was 190%, the “Median Survival” value [3] was 20.5 days and the “T/C × 100 (%)” value [3] was 205%.

With `Br.Br.Br.Br.C[C@H](N)C(=O)N[C@@H](CCCNC(=N)N)C(=O)NCCNc1ccc(NCCNC(=O)[C@H](CCCNC(=N)N)NC(=O)[C@H](C)N)c2c1C(=O)c1c(O)ccc(O)c1C2=O` [Example 88, N,N'-[(9,10-Dihydro-5,8-dihydroxy-9,10-dioxo-1,4-anthracenediyl)bis(imino-2,1-ethanediyl)]bis-[L-alanyl-L-argininamide]tetrahydrobromide] the “Median Survival” value [1] was 22.5 days, the “T/C × 100 (%)” value [1] was 225% and the “Median Survival” value [2] was 33.0 days. The “T/C × 100 (%)” value [2] was 330%, the “Median Survival” value [3] was 44.0 days and the “T/C × 100 (%)” value [3] was 440%.

With `Br.Br.C[C@H](NC(=O)OC(C)(C)C)C(=O)N[C@@H](C)C(=O)N[C@@H](CCCNC(=N)N)C(=O)NCCNc1ccc(NCCNC(=O)[C@H](CCCNC(=N)N)NC(=O)[C@H](C)NC(=O)[C@H](C)NC(=O)OC(C)(C)C)c2c1C(=O)c1c(O)ccc(O)c1C2=O` [Example 89, N,N'-[(9,10-Dihydro-5 8-dihydroxy-9,10-dioxo-1,4-anthracenediyl)bis(imino-2,1-ethanediyl)]bis[N-[(1,1-dimethylethoxy)carbonyl]-L-alanyl-L-alanyl-L-argininamide]-dihydrobromide] the “Median Survival” value [1] was 17.0 days, the “T/C × 100 (%)” value [1] was 155% and the “Median Survival” value [2] was 17.5 days. For the same molecule, the “T/C × 100 (%)” value [2] was 159%, the “Median Survival” value [3] was 24.5 days and the “T/C × 100 (%)” value [3] was 223%.

With `Br.Br.C[C@H](N)C(=O)N[C@@H](C)C(=O)N[C@@H](CCCNC(=N)N)C(=O)NCCNc1ccc(NCCNC(=O)[C@H](CCCNC(=N)N)NC(=O)[C@H](C)NC(=O)[C@H](C)N)c2c1C(=O)c1c(O)ccc(O)c1C2=O.O=C(O)C(F)(F)F.O=C(O)C(F)(F)F` [Example 90, N,N'-[(9,10-Dihydro-5,8-dihydroxy-9,10-dioxo-1,4-anthracenediyl)bis(imino-2,1-ethanediyl)]bis[L-alanyl-L-alanyl-L-argininamide], dihydrobromide, bis(trifluoroacetate)] the “Median Survival” value [1] was 23.5 days, the “T/C × 100 (%)” value [1] was 214% and the “Median Survival” value [2] was 23.5 days. For the same molecule, the “T/C × 100 (%)” value [2] was 214%, the “Median Survival” value [3] was 19.5 days and the “T/C × 100 (%)” value [3] was 177%.
